Assay results from patent US9622474B2, “N-(substituted)-5-fluoro-4-imino-3-methyl-2-oxo-3,4-dihydropyrimidine-1(2H)-carboxylate derivatives” (Adama Makhteshim Ltd., priority 2012, dated 2017).

Legend:
[1] = test system: Mycosphaerella graminicola; Anamorph: Septoria tritici; Bayer Code SEPTTR; assay: Fungicidal activity vs. leaf blotch of wheat (SEPTTR), one-day protectant (1DP); type: in vivo, Septoria tritici on wheat plants (variety Yuma); conditions: rating of % disease control vs untreated, inoculated plants
Protocol: (§1) Example A: Evaluation of Fungicidal Activity: Leaf Blotch of Wheat (Mycosphaerella graminicola; Anamorph: Septoria tritici; Bayer Code SEPTTR):
(§2) Wheat plants (variety Yuma) were grown from seed in a greenhouse in 50% mineral soil/50% soil-less Metro mix until the first leaf was fully emerged, with 7-10 seedlings per pot. These plants were inoculated with an aqueous spore suspension of Septoria tritici either prior to or after fungicide treatments. After inoculation the plants were kept in 100% relative humidity (one day in a dark dew chamber followed by two to three days in a lighted dew chamber) to permit spores to germinate and infect the leaf. The plants were then transferred to a greenhouse for disease to develop.
(§3) The following table presents the activity of typical compounds of the present disclosure when evaluated in these experiments. The effectiveness of the test compounds in controlling disease was determined by assessing the severity of disease on treated plants, then converting the severity to percent control based on the level of disease on untreated, inoculated plants.

[2] = test system: Mycosphaerella graminicola; Anamorph: Septoria tritici; Bayer Code SEPTTR; assay: Fungicidal activity vs. leaf blotch of wheat (SEPTTR), three-day curative (3DC); type: in vivo, Septoria tritici on wheat plants (variety Yuma); conditions: rating of % disease control vs untreated, inoculated plants
Protocol: as §1, §2, §3

Row | SMILES | SEPTTR 100 PPM 1DP [1] | SEPTTR 100 PPM 3DC [2] | melting point
1 | COc1ccc(OC(=O)n2cc(F)c(=N)n(C)c2=O)cc1 [Compound 1, 4-methoxyphenyl 5-fluoro-4-imino-3-methyl-2-oxo-3,4-dihydropyrimidine-1(2H)-carboxylate] | A (76-100) | A (76-100) | 135.6 to 137.1 °C
2 | Cn1c(=N)c(F)cn(C(=O)Oc2ccccc2)c1=O [Compound 4] | A (76-100) | A (76-100) | 86.4 to 87.6 °C
3 | COc1ccc(OC(=O)/N=c2/c(F)cn(C(=O)Oc3ccc(OC)cc3)c(=O)n2C)cc1 [Compound 2] | A (76-100) | A (76-100) | 161.8 to 165.6 °C
4 | Cc1ccc(OC(=O)n2cc(F)c(=N)n(C)c2=O)cc1 [Compound 3] | A (76-100) | A (76-100) | 109 to 110.2 °C
